Assay: Human HepG2 cell viability assay in 384 well format
Format: toxicity, cell-based
Design: dose 125 nL, time 70.5 hour; concentration not given beside the values
Settings: HepG2 cells, read-out: Inhibition

SMILES	cytotoxicity at 70.5 h [%]
O=C(C1CC1)N1CCN2C[C@@H](CO)[C@H](c3ccccc3)[C@H]2C1	8.58
NC(=O)[C@@H]1CN2CCN(C(=O)C3CC3)C[C@@H]2[C@H]1c1ccccc1	-2.24
CNC(=O)[C@@H]1[C@@H](c2ccccc2)CN2CCN(Cc3ccccn3)C[C@H]12	-7.27
O=C(C1CC1)N1CCN2C[C@H](c3ccccc3)[C@@H](CO)[C@H]2C1	-5.2
CC(C)COC(=O)N1CC(=O)N(CCc2ccccc2)CC(O)C1 (centres undefined)	25.4
COc1ccc(CN2CC(O)CN(C(=O)OCC(C)C)CC2=O)cc1 (centres undefined)	14.8
COc1cccc(CN2CC(O)CN(C(=O)C(C)(C)C)CC2=O)c1OC (centres undefined)	50.4
CC(C)COC(=O)N1CC(=O)N(Cc2ccc(Cl)cc2)CC(O)C1 (centres undefined)	-3.08
COc1ccccc1CN1CC(O)CN(S(=O)(=O)C(C)C)CC1=O (centres undefined)	16.7
CCOC(=O)N1CC(=O)N(CCc2ccccc2)CC(O)C1 (centres undefined)	5.59
COC1CN(C(=O)C2CC2)CCC(=O)N(C)c2ccccc21 (centres undefined)	2.56
COC1CN(C(=O)CC(C)C)CCC(=O)N(C)c2ccccc21 (centres undefined)	-7.01
COC1CN(C(=O)COC(C)=O)CCC(=O)N(C)c2ccccc21 (centres undefined)	-5.15
COC1CN(C(=O)CC2CCCC2)CCC(=O)N(C)c2ccccc21 (centres undefined)	21.5
COC1CN(C(=O)NCC(N)=O)CCC(=O)N(C)c2ccccc21 (centres undefined)	-7.69
COCC(=O)N1CCC(=O)N(C2CCCC2)Cc2cc(F)ccc21	-5.37
O=C(O)CCCC(=O)N1CCC(c2noc3cc(F)ccc23)CC1	-13.8
O=C(NC1CCC1)[C@H]1C[C@@H]2CN(S(=O)(=O)c3ccccc3)C[C@H]1O2	-1.64
CC(C)OC[C@H]1CCC[C@]12CN(S(=O)(=O)C1CC1)CCO2	-0.771
COCCN1CCc2ncc(CN(C)C)n2CC1	-0.491
Cc1cnc(N2C[C@@H]3[C@@H](C2)OCC(=O)N3C)nc1	-8.76
COCCN1CCc2ncc(CNc3cc(N(C)C)ncn3)n2CC1	-8.47
Cc1nc(CN2CCc3nc(NC(C)C)nc(C)c3C2)cs1	-6.71
CN(C)CCN1C(=O)CO[C@@H]2CN(c3ncc(F)cn3)C[C@H]21	-6.29
COCC(=O)N1CCC2(CC1)CC(N1CCN(C)CC1)CO2 (centres undefined)	14.5
Cc1ccc2c(c1)C1(CCNCC1)CC2N1CCOCC1 (centres undefined)	1.67

SMILES	cytotoxicity at 70.5 h [%]
CCN(C)C(=O)c1ccc2c(c1)C(c1nc[nH]n1)CN2S(C)(=O)=O (centres undefined)	-8.39
CCc1cnc(NC2CCc3c(ccc(=O)n3C)C2)nc1 (centres undefined)	-5.8
CC(C)CS(=O)(=O)N1CCC2(CC1)CCn1c(-c3cnn(C)c3)cnc12	32.9
CO[C@H]1CN(S(=O)(=O)c2cn(C)cn2)[C@@H]2CCCO[C@H]12	24.5
CC(=O)N1CCC2(CC1)CN(C(=O)c1cccc3[nH]ccc13)CCO2	27.3
Cc1cnc(NC2CCc3c(ccc(=O)n3CC3CC3)C2)nc1 (centres undefined)	-5.47
CCC(=O)N1CC[C@H]2C(=O)N(Cc3ccc(OC)cc3)CCO[C@H]2C1	34.1
CC(C)n1nc(CNc2ncccn2)c2c1CN(S(C)(=O)=O)CC2	10.7
Cc1cccc(CN2CC3C[C@]3(NC(=O)c3ccco3)C2)n1 (some centres undefined)	-4.13
COC[C@]12COC[C@H]1CN(C(=O)c1ccc(F)cc1C)C2	0.0363
CCO[C@H]1CN(C(=O)c2ccc3c(c2)OCO3)[C@@H]2COC[C@H]12	-2.21
Cc1ccc(CN2C[C@H](N(C)Cc3cncnc3)[C@H]3OCCC[C@H]32)o1	-10.1
CN(C)CCO[C@H]1CN(C(=O)c2ccc3c(c2)OCO3)[C@@H]2COC[C@H]12	-11.6
Cc1cc(F)ccc1C(=O)N1C[C@@H]2COC[C@]2(COCC2CC2)C1	-10.8
CC(=O)N1Cc2nccn2CC(CNC(=O)c2cnccn2)C1 (centres undefined)	-13.1
CN1CC[C@H]2[C@H](C[C@@H](Cn3cncn3)N2c2nccs2)C1	-8.05
Cc1cccc(CN2CC3C[C@]3(NC(=O)c3ccoc3)C2)n1 (some centres undefined)	-12.4
CN1CCN(c2ncnc3c2CCN(Cc2nccn2C)CC3)CC1	6.69
c1coc(CN2CC[C@@H]3O[C@@H](COCC4CCOCC4)CC[C@@H]32)c1	-0.874
Cc1ccc(C(=O)N2CCC3(CCN(Cc4ccccn4)C3=O)C2)cn1 (centres undefined)	-5.23
O=C(COC[C@@H]1CC[C@H]2[C@H](CCN2Cc2ccco2)O1)N1CCCC1	24.3
CCN(CC)CC1CN(Cc2ccco2)Cc2nccn2C1 (centres undefined)	-4.92
Cn1ccc(C(=O)NC2CCC23CCN(Cc2nccs2)CC3)c1 (centres undefined)	-4.21
COCCn1c2c(ccc1=O)CCN(Cc1ccoc1)CC2	-3.82
Cc1cccc(CN2CCc3ncnc(Oc4cccnc4)c3CC2)n1	27.9
COc1nn(C)c2c1CCCN(C(=O)c1ccccc1F)C2	-95.9

SMILES	cytotoxicity at 70.5 h [%]
CCN(CC)C(=O)C1CCC2(CCNCC2)O1 (centres undefined)	-12.5
CCN(CC)C(=O)C1CCC2(CCNCC2)CO1 (centres undefined)	-14.2
c1cnc(N2CCCn3nnc(COCC4CC4)c3C2)nc1	-1.29
Cn1ccc(CN2CCC3(CC2)CC(Nc2cnccn2)CO3)n1 (centres undefined)	-1.03
COCCN1CCC2(CC1)CC(Nc1ccc(C)nn1)CO2 (centres undefined)	-2.32
CCCS(=O)(=O)N1CCC2(CC1)CC(N1CCCC1)c1ccccc12 (centres undefined)	-8.52
CN(C)CCN1C(=O)CC[C@@H]2[C@H]1CCN2C(=O)c1ccc(C#N)cc1	-7.83
Cc1nnc([C@]23COC[C@H]2CN(Cc2nccs2)C3)o1	-10.3
CS(=O)(=O)N[C@@H]1CCO[C@]2(CCN(CC3CCOCC3)C2)C1	-5.05
CS(=O)(=O)N[C@H]1CCO[C@]2(CCN(CC3CCOCC3)C2)C1	-11.1
CC(=O)N1Cc2nccn2CC(CNC(=O)c2cccnc2)C1 (centres undefined)	-11.5
CC(=O)NCc1nnc2n1CCN(Cc1cccs1)C2	-11.7
CCS(=O)(=O)N1CCCC2(CCCN2Cc2cccc(Cl)c2)C1 (centres undefined)	-4.53
CNC(=O)CN1CCO[C@H]2CN(C(=O)c3ccncc3F)C[C@H]21	-3.77
O=S(=O)(C1CC1)N1CCO[C@@H]2CN(Cc3cccs3)C[C@@H]2C1	-5.47
CC(C)N1CCO[C@H]2CN(C(=O)c3ccncc3F)C[C@H]21	-4.09
O=S(=O)(c1ccccc1)N1CCC2(CCCN2Cc2cccc(Cl)c2)C1 (centres undefined)	-11.2
CCCS(=O)(=O)N1C[C@@H]2CN(Cc3cccs3)CCO[C@@H]2C1	-14.7
O=S(=O)(C1CC1)N1C[C@@H]2CN(Cc3ccoc3)CCO[C@@H]2C1	-15.4
Cc1cc(C(=O)N2C[C@@H]3COC[C@]3(CN(C)C)C2)c(C)o1	-17.3
Cc1cc(F)ccc1C(=O)N1C[C@@H]2COC[C@]2(CN(C)C)C1	-14.9
CCOCC1c2c(cnn2CC2CC2)CCN1C(=O)c1ccncn1 (centres undefined)	20.9
Cn1ncc2c1C(COCC1CC1)N(C(=O)c1ccncn1)CC2 (centres undefined)	5.78
O=C1C[C@@H]2[C@H](CCN2Cc2ccco2)N1c1ccsc1	9.07
O=S(=O)(c1ccccc1)N1C[C@@H]2COC[C@]2(CN2CCOCC2)C1	13.1
CN(C)S(=O)(=O)N1C[C@H]2CCC[C@@]2(COCc2ccccn2)C1	13.2

SMILES	cytotoxicity at 70.5 h [%]
Cc1ccc(CN2CC[C@H]3[C@H]2CC(=O)N3c2ccsc2)o1	5.86
c1coc(CN2CC[C@H]3O[C@@H](COCC4CC4)CC[C@H]32)c1	7.95
CCO[C@H]1CO[C@@]2(CCCN(Cc3scnc3C)C2)C1	14.7
Cn1c2c(ccc1=O)CCN(Cc1ccoc1)CC2	4.43
CN(C)C(=O)COC[C@H]1CC[C@@H]2[C@@H](CCN2Cc2ccco2)O1	7.59
Fc1ccc(CN2CCc3ncnc(C4CC4)c3CC2)cc1	1.98
c1ccc(CN2Cc3nccn3CC(Cn3cncn3)C2)nc1 (centres undefined)	2.19
O=C(c1ccsc1)N1CCC2(CCN(Cc3ccccn3)C2=O)C1 (centres undefined)	2.48
Cc1cc(CN2CCC3(CC2)CC(Nc2ncccn2)CO3)nn1C (centres undefined)	-35.4
CC(C)CS(=O)(=O)N1CCC2(CN(c3ccsc3)C(=O)CN2C)C1 (centres undefined)	-111
CO[C@@H]1CC[C@H]2[C@H]1OCCN2CC1CC1	-83.7
CN(C)Cc1noc2c1CN(Cc1ccsc1)CC2	-5.59
Cc1ccc(C(=O)N2CC[C@@H]3[C@H]2CCC(=O)N3CCN(C)C)cn1	18.5
CC(=O)N(C)Cc1nn(C)c2c1CN(Cc1ccsc1)C2	-6.65
c1ccc(CN2CCc3ncnc(C4CC4)c3CC2)nc1	-1.29
CCO[C@@H]1C[C@H]2CN(Cc3ccc(C)o3)CCN2C1	-11.9
c1csc(CN2CCO[C@@H]3CN(C4CCOCC4)C[C@@H]3C2)c1	-10
Cn1cnc(S(=O)(=O)N2CCN(CC3CC3)c3ncccc3C2)c1	-6.52
CC(C)CN1CCN(S(=O)(=O)c2cn(C)cn2)Cc2cccnc21	-10.6
Cc1csc(CN2CCC[C@]3(C[C@@H](Oc4ccccn4)CO3)C2)n1	1.82
O=C(NC[C@H]1OC[C@@H]2CN(Cc3ccco3)CC[C@@H]21)c1cccnc1	6.02
Cc1cccc(CN2CCc3ncnc(N4CCN(C)CC4)c3CC2)n1	-0.603
c1cc(CN2Cc3nccn3CC(Cn3cncn3)C2)ccn1 (centres undefined)	3.67
O=C1CO[C@@H]2CN(CC3CCOCC3)C[C@H]2N1Cc1ccncc1	-2.17
CC(C)N1[C@H](CN2CCCC2)C[C@@H]2CN(Cc3ccoc3)CC[C@@H]21	-10
c1cncc(CN2CC[C@@H]3O[C@H](COCCN4CCCC4)CC[C@@H]32)c1	5.3
